Columns and labels:
OSA [1] = test: Acetazolamide effect on loop gain and OSA severity; set-up: species or system human; conditions: in vivo
Source text: Residual events after anatomical interventions can arise as an effect of elevated loop gain. […] Acetazolamide is a respiratory stimulant used in healthy adults at high-altitude (where it augments and stabilizes respiration) and has additionally been administered safely long-term for glaucoma and heart failure.

OSA [2] = conditions: agents administered separately (N=9); cited from earlier work

| Structure (SMILES) | reduction of OSA severity (AHI) (OSA [1]) | reduction of loop gain (OSA [1]) | effect on OSA severity, agents administered separately (OSA [2]) |
| --- | --- | --- | --- |
| CC(=O)Nc1nnc(S(N)(=O)=O)s1 [acetazolamide] | ~50% | ~50% | – |
| CNCC[C@@H](Oc1ccccc1C)c1ccccc1 [atomoxetine, Atomoxetine] | – | – | minimal effect |
| CCN(CC)CC#CCOC(=O)C(O)(c1ccccc1)C1CCCCC1 (stereo not shown) [oxybutynin] | – | – | minimal effect |
